Experimental data from PubChem BioAssay AID206 (DTP/NCI, 2004).
Records with an inconclusive call do not appear.

Tested on: nude mice, HT29 intrarenal xenograft, tumor weight T/C
Assay: NCI In Vivo Anticancer Drug Screen. Data for tumor model HT29;CX-1 Human Adenocarcinoma (MER+) (intrarenal inoculation) in NU/NU Swiss (nude) mice
Details: endpoint: mean tumor weight change, higher = larger tumour
How it was run: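 Endpoint measured as tumor size or survival; ratio reported is treated group over vehicle controls.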

[1] = dose: 600.0 mg/kg/injection, schedule: Q04DX004 (sc), vehicle: Klucel (hydroxypropylcellulose) (HPC)
[2] = dose: 1200.0 mg/kg/injection, schedule: Q04DX004 (sc), vehicle: Klucel (hydroxypropylcellulose) (HPC)

CC(=O)C1(O)Cc2c(O)c3c(c(O)c2C(OC2CC(N)C(O)C(C)O2)C1)C(=O)c1ccccc1C3=O (configuration not stated)
T/C (dose: 1.0 mg/kg/injection, schedule: Q04DX004 (sc), vehicle: water): 67 % of control

N#Cc1cn(C2OC(CO)C(O)C2O)c2ncnc(N)c12 (configuration not stated)
T/C (dose: 0.13 mg/kg/injection, schedule: Q01DX010 (sc), vehicle: saline): 81 % of control
T/C (dose: 0.25 mg/kg/injection, schedule: Q01DX010 (sc), vehicle: saline): 171 % of control

CCC1CC2CN(CCc3c([nH]c4ccccc34)C(C(=O)OC)(c3cc4c(cc3OC)N(C)C3C(O)(C(=O)OC)C(OC(C)=O)C5(CC)C=CCN6CCC43C65)C2)C1 (configuration not stated)
T/C (dose: 1.0 mg/kg/injection, schedule: Q04DX004 (sc), vehicle: saline): 209 % of control
T/C (dose: 2.0 mg/kg/injection, schedule: Q04DX004 (sc), vehicle: saline): 164 % of control
T/C (dose: 4.0 mg/kg/injection, schedule: Q04DX004 (sc), vehicle: saline): 58 % of control
T/C (dose: 8.0 mg/kg/injection, schedule: Q04DX004 (sc), vehicle: saline): 68 % of control

C[C@]12CC[C@H]3[C@@H](CCC4=C[C@@H](OC5OCC(OC6OC(CO)C(O)C(O)C6O)C(O)C5O)CC[C@@]43C=O)[C@@]1(O)CCC2C1=CC(=O)OC1 (some centres not stated)
T/C (dose: 3.75 mg/kg/injection, schedule: Q04DX004 (sc), vehicle: Klucel (hydroxypropylcellulose) (HPC)): 67 % of control
T/C (dose: 7.5 mg/kg/injection, schedule: Q04DX004 (sc), vehicle: Klucel (hydroxypropylcellulose) (HPC)): 97 % of control
T/C (dose: 15.0 mg/kg/injection, schedule: Q04DX004 (sc), vehicle: Klucel (hydroxypropylcellulose) (HPC)): 93 % of control
T/C (dose: 30.0 mg/kg/injection, schedule: Q04DX004 (sc), vehicle: Klucel (hydroxypropylcellulose) (HPC)): 110 % of control

ClC1=C(Cl)C(Cl)=C(Cl)C1=Cc1ccccc1
T/C (dose: 50.0 mg/kg/injection, schedule: Q04DX004 (sc), vehicle: saline with Tween-80): 104 % of control

O=C1C=C[C@H](O)[C@@]2(CO)O[C@@H]12
T/C (dose: 6.25 mg/kg/injection, schedule: Q04DX004 (sc), vehicle: saline with Tween-80): 109 % of control
T/C (dose: 12.5 mg/kg/injection, schedule: Q04DX004 (sc), vehicle: saline with Tween-80): 82 % of control

C(C#CCN1CCOCC1)#CCN1CCOCC1
T/C [1]: 100 % of control
T/C [2]: 72 % of control
T/C (dose: 2400.0 mg/kg/injection, schedule: Q04DX004 (sc), vehicle: Klucel (hydroxypropylcellulose) (HPC)): 68 % of control

O=C1NC(=O)/C(=C/C=C/c2ccccc2)S1
T/C (dose: 200.0 mg/kg/injection, schedule: Q04DX004 (sc), vehicle: saline with Tween-80): 76 % of control
T/C (dose: 400.0 mg/kg/injection, schedule: Q04DX004 (sc), vehicle: saline with Tween-80): 68 % of control
T/C (dose: 800.0 mg/kg/injection, schedule: Q04DX004 (sc), vehicle: saline with Tween-80): 94 % of control
T/C (dose: 1600.0 mg/kg/injection, schedule: Q04DX004 (sc), vehicle: saline with Tween-80): 83 % of control

COc1cc(C(=O)c2cc3c(cc2C)OCO3)cc(OC)c1OC
T/C (dose: 300.0 mg/kg/injection, schedule: Q04DX004 (sc), vehicle: Klucel (hydroxypropylcellulose) (HPC)): 83 % of control
T/C [1]: 64 % of control
T/C [2]: 82 % of control

COc1cccc2c1C(=O)c1c(O)c3c(c(O)c1C2=O)C[C@@](O)(/C(C)=N/NC(=O)c1cccc([N+](=O)[O-])c1)C[C@@H]3OC1CC(N)C(O)C(C)O1 (some centres not stated)
T/C (dose: 8.0 mg/kg/injection, schedule: Q01DX010 (sc), vehicle: water): 16 % of control
T/C (dose: 10.0 mg/kg/injection, schedule: Q04DX004 (sc), vehicle: water): 48 % of control
T/C (dose: 16.0 mg/kg/injection, schedule: Q01DX010 (sc), vehicle: water): 61 % of control
T/C (dose: 20.0 mg/kg/injection, schedule: Q04DX004 (sc), vehicle: water): 70 % of control
T/C (dose: 40.0 mg/kg/injection, schedule: Q04DX004 (sc), vehicle: water): 47 % of control
T/C (dose: 80.0 mg/kg/injection, schedule: Q04DX004 (sc), vehicle: water): 106 % of control

O=C(Nc1ccc(C2=NCCN2)cc1)c1ccc(C(=O)Nc2ccc(C3=NCCN3)cc2)c(Cl)c1
T/C (dose: 12.5 mg/kg/injection, schedule: Q01DX010 (sc), vehicle: water): 101 % of control
T/C (dose: 25.0 mg/kg/injection, schedule: Q01DX010 (sc), vehicle: water): 61 % of control
T/C (dose: 50.0 mg/kg/injection, schedule: Q01DX010 (sc), vehicle: water): 78 % of control

CC(=O)OCC1OC(n2ccc(N)nc2=O)C(OC(C)=O)C1OC(C)=O (configuration not stated)
T/C (dose: 300.0 mg/kg/injection, schedule: Q04DX004 (sc), vehicle: suspension in saline): 43 % of control
T/C (dose: 600.0 mg/kg/injection, schedule: Q04DX004 (sc), vehicle: suspension in saline): 50 % of control
T/C (dose: 1200.0 mg/kg/injection, schedule: Q04DX004 (sc), vehicle: suspension in saline): 43 % of control
T/C (dose: 2400.0 mg/kg/injection, schedule: Q04DX004 (sc), vehicle: suspension in saline): 24 % of control
